According to patent publication US10238671B2, “Hydrosoluble hydroxybisphosphonic derivatives of doxorubicin” (Atlanthera, priority 2014, dated 2019):
In brackets after ≈: the same amount, converted by molar mass.

Columns and labels:
[1] = system: human tumor line HOS (human osteosarcoma, ATCC); test: Orthotopic xenogeneic murine model of osteolytic osteosarcoma (paratibial injection of HOS): tumor volume and radiographic evaluation; assay type: in vivo, immunosuppressed mice; conditions: for Bone lesions (metaphyseal fractures, alteration of cortical integrity, new formation of ectopic bone): radiographic evaluation, compared with control and other groups; for Size of extraosseous tumors in relation to control group and vector 5 and/or doxorubicin groups: 25 μmol/kg 2x/wk intraperitoneally, HOS tumor in mice; for Fractures of the tibial metaphysis: Day 27, radiography, 90% of control animals have fractures
Description: The antitumor activity of compounds (II) and (III) according to the invention was evaluated in an orthotopic, xenogeneic murine model of osteolytic osteosarcoma induced by paratibial injection of the human tumor line HOS (human osteosarcoma, ATCC) in immunosuppressed mice. The activity of the molecules according to the invention was compared with that of the two main subunits comprising them (doxorubicin and vector 5) alone or in combination. The treatments, on 10 animals per group, began the day following tumor induction and were administered intraperitoneally 1 to 2 times per week for 5 weeks. Tumor volumes were measured twice per week using a slide caliper and radiographic evaluation was carried out once per week. Tumor volume, expressed in mm^3, is calculated according to the following formula: V=(L×l^2)/2 (L and l, expressed in mm, correspond to the large length and the small length of the tumor, respectively).
The following treatment groups were thus studied, each on 10 mice: […]

[2] = Toxicity in mice (weight loss, cardiotoxicity, maximum usable dose); conditions: for Dose giving similar weight loss, relative to doxorubicin alone (maximum usable dose study): mice, intravenously or intraperitoneally
[3] = Solubility of compounds (II), (III) and (IV) compared with products (a) and (b); conditions: for solubility: aqueous buffer
[4] = 2 mg/ml solution of TRIS in water

SMILES | Bone lesions (metaphyseal fractures, alteration of cortical integrity, new formation of ectopic bone) [1] | Size of extraosseous tumors in relation to control group and vector 5 and/or doxorubicin groups [1] | Fractures of the tibial metaphysis [1] | Dose giving similar weight loss, relative to doxorubicin alone (maximum usable dose study) [2] [times higher] | solubility ([3]; DPBS or water) [mM] | Solubility in 2 mg/ml solution of TRIS in water [3, 4] | Solubility in DPBS or water ([3]; DPBS or water) | also measured
COc1cccc2c1C(=O)c1c(O)c3c(c(O)c1C2=O)C[C@@](O)(C(=O)CO)C[C@@H]3O[C@H]1C[C@H](N)[C@H](O)[C@H](C)O1 [doxorubicin] | equivalent to those of the control group | – | – | – | – | – | – | Outcome after Day 27 (tumor volume) ([1]; after Day 27): had to be euthanized because of excessively large tumor volumes; Weight loss ([2]; dose 12 mg/kg (20 μmol/kg), requiring euthanasia after 2 weeks of treatment): > 10%
COc1cccc2c1C(=O)c1c(O)c3c(c(O)c1C2=O)C[C@@](O)(/C(CO)=N/NC(=S)NNCc1cccc(OCCCN(C)CCC(O)(P(=O)(O)O)P(=O)(O)O)c1)C[C@@H]3O[C@H]1C[C@H](N)[C@H](O)[C@H](C)O1 [Compound (III)] | reduce | significantly reduce | not detected in any of the mice | 13 | ~160 (≈ 164 mg/mL) | – | – | –
COc1cccc2c1C(=O)c1c(O)c3c(c(O)c1C2=O)C[C@@](O)(/C(CO)=N/OCC(O)(P(=O)(O)O)P(=O)(O)O)C[C@@H]3O[C@H]1C[C@H](N)[C@H](O)[C@H](C)O1 [Compound (IV)] | – | – | – | 13 | ~315 (≈ 240 mg/mL) | – | – | –
COc1cccc2c1C(=O)c1c(O)c3c(c(O)c1C2=O)C[C@@](O)(/C(CO)=N/NC(=S)N/N=C/c1cccc(OCCCN(C)CCC(O)(P(=O)(O)O)P(=O)(O)O)c1)C[C@@H]3O[C@H]1C[C@H](N)[C@H](O)[C@H](C)O1 [(a)] | – | – | – | – | – | insoluble | insoluble | Solubility in organic solvents ([3]; ethanol or dimethylsulfoxide or mixtures thereof with water): insoluble; Solubility in water with organic or inorganic additives ([3]; water with organic additives (Tween, PEG, glycerin, glucose, TRIS) or inorganic additives (sodium carbonate or bicarbonate)): insoluble
COc1cccc2c1C(=O)c1c(O)c3c(c(O)c1C2=O)C[C@@](O)(/C(CO)=N/NC(=S)NNC(=O)CN(CCN(CC(=O)O)CC(=O)NNC(=S)N/N=C/c1cccc(OCCCN(C)CCC(O)(P(=O)(O)O)P(=O)(O)O)c1)CC(=O)O)C[C@@H]3O[C@H]1C[C@H](N)[C@H](O)[C@H](C)O1 [Compound (II)] | reduce | significantly reduce | not detected in any of the mice | 13 | ~255 (≈ 354 mg/mL) | – | – | Animals with a tumor greater than 1500 mm^3 in volume ([1]; Day 32, 10 mice per group): only one mouse; Signs of toxicity (very early weight loss, cardiotoxicity) ([2]; 20 μmol/kg (molar equivalent dose to doxorubicin 12 mg/kg)): do not induce these signs of toxicity
COc1cccc2c1C(=O)c1c(O)c3c(c(O)c1C2=O)C[C@@](O)(/C(CO)=N/NC(=S)N/N=C/c1cccc(OCCCN(C)CCC(O)(P(=O)(O)O)P(=O)(O)O)c1)C[C@@H]3O[C@H]1C[C@H](NC(=O)CCC(=O)O)[C@H](O)[C@H](C)O1 [(b)] | – | – | – | – | – | poorly soluble | insoluble | solubility [3, 4]: ~1 mM (≈ 1.13 mg/mL)
